Data: patent US20250144067A1, “PERSONALIZED STARVATION THERAPY FOR CANCER” (Faeth Therapeutics, Inc., priority 2021, published 2025)
Structures can show the parent of a compound that is named as a salt. Where two headings read alike, the source gives them in different places.

How the values were obtained:
[1] = system: NCI-H292 lung cancer cells; test: FDA drug screening, complete media vs cholesterol-free media with simvastatin (TABLE 2); type: cell-based, human
[2] = system: NCI-H292 lung cancer cells; test: FDA drug screening, complete media vs cholesterol-free media without statin (TABLE 1); type: cell-based, human
[3] = NCI-H292 cells, drug in cholesterol-free media with simvastatin 0.04 μM
[4] = NCI-H292 cells, drug in complete media
[5] = complete media vs cholesterol-free media + simvastatin (0.04 μM), >0 enhanced anti-cancer activity, about 0 neutral, <0 antagonist
[6] = NCI-H292 cells, cholesterol-free media without statin
[7] = complete vs cholesterol-free media, greater than 0 enhanced anti-cancer activity, about 0 neutral, below 0 antagonists
[8] = NCI-H292 cells, cholesterol-free media with simvastatin 0.04 μM, FDA drug library screen (TABLE 2)
[9] = NCI-H292 cells, complete media, FDA drug library screen (TABLE 2)
[10] = complete media minus cholesterol-free media + simvastatin (0.04 μM), >0 enhanced anti-cancer activity, about 0 neutral, <0 antagonist
[11] = Complete minus Cholesterol-free, greater than 0 enhanced anti-cancer activity, about 0 neutral, below 0 antagonists
[12] = NCI-H292 cells in cholesterol-free media without statin
[13] = NCI-H292 cells in complete media
[14] = NCI-H292 cells, FDA drug library screen, cholesterol-free media with simvastatin 0.04 μM
[15] = NCI-H292 cells, FDA drug library screen, complete media
[16] = complete media minus cholesterol-free media + simvastatin, >0 enhanced anti-cancer activity, about 0 neutral, <0 antagonist
[17] = Complete minus Cholesterol-free, >0 enhanced anti-cancer activity, about 0 neutral, <0 antagonist
[18] = NCI-H292 cells, FDA library drug in cholesterol-free media with simvastatin 0.04 μM
[19] = NCI-H292 cells, FDA library drug in complete media
[20] = NCI-H292 cells, cholesterol-free media without statin, FDA drug library screen
[21] = NCI-H292 cells, complete media, FDA drug library screen
[22] = complete vs cholesterol-free media, >0 enhanced anti-cancer activity, about 0 neutral, <0 antagonist
[23] = Complete minus Cholesterol-free, greater than 0 enhanced anti-cancer activity, about 0 neutral, below 0 antagonist
[24] = NCI-H292 cells, FDA drug library screen, cholesterol-free media without statin

With `CC1COc2c(N3CCN(C)CC3)c(F)cc3c(=O)c(C(=O)O)cn1c23` (centres unmarked) [Ofloxacin] the “Cholesterol-free media + simvastatin (0.04 μM)” value [1, 3] was 1.154, the “Complete Media” value [1, 4] was 0.9389 and the Difference [1, 5] was −0.22. It also gave a Cholesterol-free [2, 6] of 1.221, a Complete ([2]; NCI-H292 cells, complete media) of 0.8562 and a Difference [2, 7] of −0.36.
With `Cc1cc2c(s1)Nc1ccccc1N=C2N1CCN(C)CC1` [Olanzapine] the “Cholesterol-free media + simvastatin (0.04 μM)” value [1] was 1.722, the “Complete Media” value [1] was 1.489 and the Difference [1] was −0.23. The Cholesterol-free [2] was 0.9635, the Complete [2] was 0.9217 and the Difference [2] was −0.04.
With `O=C(c1cc(Cc2n[nH]c(=O)c3ccccc23)ccc1F)N1CCN(C(=O)C2CC2)CC1` [Olaparib] the “Cholesterol-free media + simvastatin (0.04 μM)” value [1, 8] was 0.8331, the “Complete Media” value [1, 9] was 0.8347 and the Difference [1, 10] was 0.00. For the same compound, the Difference [2, 11] was −0.72, the Cholesterol-free [2, 12] was 1.436 and the Complete [2, 13] was 0.7169.
In the case of `CC1(C)CC[C@]2(C(=O)O)CC[C@]3(C)C(=CC[C@@H]4[C@@]5(C)CC[C@H](O)C(C)(C)[C@@H]5CC[C@]43C)[C@@H]2C1` [Oleanolic Acid], the “Cholesterol-free media + simvastatin (0.04 μM)” value [1, 14] was 1.063, the “Complete Media” value [1, 15] was 1.721 and the Difference [1, 16] was 0.66. For the same compound, the Difference [2, 17] was −0.19, the Cholesterol-free [2, 6] was 1.001 and the Complete ([2]; NCI-H292 cells, complete media) was 0.8111.
For `CCCCCCCC/C=C\CCCCCCCC(=O)O` [Oleic acid], the “Cholesterol-free media + simvastatin (0.04 μM)” value ([1]; NCI-H292 cells, cholesterol-free media with simvastatin 0.04 μM, cell growth value in FDA drug screen) was 0.7267, the “Complete Media” value ([1]; NCI-H292 cells, complete media, cell growth value in FDA drug screen) was 0.8301 and the Difference [1, 16] was 0.10. The Difference [2, 17] was −0.25, the Cholesterol-free [2, 6] was 1.214 and the Complete ([2]; NCI-H292 cells, complete media) was 0.9643.
`CCCc1nc(C(C)(C)O)c(C(=O)OCc2oc(=O)oc2C)n1Cc1ccc(-c2ccccc2-c2nnn[nH]2)cc1` [Olmesartan medoxomil] was tested, and the “Cholesterol-free media + simvastatin (0.04 μM)” value [1, 18] was 2.007, the “Complete Media” value [1, 19] was 1.701 and the Difference [1, 5] was −0.31. The Cholesterol-free [2, 20] was 0.613, the Complete [2, 21] was 1.033 and the Difference [2, 22] was 0.42.
With `CCCc1nc(C(C)(C)O)c(C(=O)O)n1Cc1ccc(-c2ccccc2-c2nnn[nH]2)cc1` [Olmesartan] the “Cholesterol-free media + simvastatin (0.04 μM)” value [1, 3] was 1.131, the “Complete Media” value [1, 4] was 0.942 and the Difference [1, 5] was −0.19. It also gave a Cholesterol-free [2, 6] of 1.93, a Complete ([2]; NCI-H292 cells, complete media) of 1.465 and a Difference [2, 7] of −0.46.
For `C=CC(=O)Nc1cccc(Oc2nc(Nc3ccc(N4CCN(C)CC4)cc3)nc3ccsc23)c1` [Olmutinib], the “Cholesterol-free media + simvastatin (0.04 μM)” value [1, 14] was 0.5571, the “Complete Media” value [1, 15] was 0.4482 and the Difference [1, 5] was −0.11. For the same compound, the Cholesterol-free [2, 20] was 0.5571, the Complete [2, 21] was 0.798 and the Difference [2, 22] was 0.24.
`CN(C)CC/C=C1/c2ccccc2COc2ccc(CC(=O)O)cc21` [Olopatadine (hydrochloride)] was tested, and the “Cholesterol-free media + simvastatin (0.04 μM)” value [1, 14] was 0.9644, the “Complete Media” value [1, 15] was 0.8474 and the Difference [1, 5] was −0.12. For the same compound, the Difference [2, 23] was −0.13, the Cholesterol-free [2, 24] was 1.018 and the Complete [2, 15] was 0.8917.
In the case of `Cc1[nH]c(=O)c(C#N)cc1-c1ccc2nccn2c1` [Olprinone (Hydrochloride)], the “Cholesterol-free media + simvastatin (0.04 μM)” value [1, 8] was 1.653, the “Complete Media” value [1, 9] was 1.64 and the Difference [1, 10] was −0.01. It also gave a Difference [2, 17] of −0.27, a Cholesterol-free [2, 6] of 1.142 and a Complete ([2]; NCI-H292 cells, complete media) of 0.8745.
With `O=C(O)c1cc(/N=N/c2ccc(O)c(C(=O)O)c2)ccc1O` [Olsalazine (Disodium)] the “Cholesterol-free media + simvastatin (0.04 μM)” value [1, 8] was 1.218, the Difference [1, 10] was −0.07 and the Difference [2, 17] was −0.25. For the same compound, the Cholesterol-free [2, 6] was 1.211 and the Complete ([2]; NCI-H292 cells, complete media) was 0.9604.
With `CN(C)c1cc(CNCC(C)(C)C)c(O)c2c1C[C@H]1C[C@H]3[C@H](N(C)C)C(O)=C(C(N)=O)C(=O)[C@@]3(O)C(O)=C1C2=O` [Omadacycline (hydrochloride)] the “Cholesterol-free media + simvastatin (0.04 μM)” value [1, 14] was 1.209, the “Complete Media” value [1, 15] was 1.089 and the Difference [1, 5] was −0.12. It also gave a Difference [2, 23] of −0.15, a Cholesterol-free [2, 24] of 1.103 and a Complete [2, 15] of 0.9531.
For `CS(=O)(=O)n1cc2c(n1)CN([C@H]1CO[C@H](c3cc(F)ccc3F)[C@@H](N)C1)C2` [Omarigliptin], the “Cholesterol-free media + simvastatin (0.04 μM)” value [1, 18] was 1.764, the “Complete Media” value [1, 19] was 1.42 and the Difference [1, 5] was −0.34. It also gave a Difference [2, 11] of −0.63, a Cholesterol-free [2, 12] of 1.475 and a Complete [2, 13] of 0.8446.
